Data on twelve compounds can be found in PubChem BioAssay (NCI).

Holding throughout (test): inhibition of tumour cell growth, NCI panel, 48 h
The subject of assay [1] is U251 CNS.
Assay [2] concerns NCI-H460 lung.
Assay [3] relates to MDA-MB-435.
Assay [4] has as its system UO-31 renal.
The subject of assay [5] is HCT-15 colon.
Assay [6] deals with MDA-N.
For assay [7], the system named is LOX IMVI melanoma.
Assay [8] relates to EKVX NSCLC.
In assay [9] the test system is HT29 colon.
Assay [10] has as its system COLO 205 colon.
Assay [11] deals with RPMI-8226 leukemia.
Assay [12] deals with SK-MEL-5 melanoma.
Assay [13] concerns SK-OV-3 ovarian.

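Grown in 96-well plates, cells were treated for 48 hours with each compound at five concentrations. Insufficient inhibition: endpoint recorded as highest concentration tested. TGI denotes the concentration required for complete inhibition of growth.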

`COc1cccc(-c2nc(-c3cnccn3)n(C/C=C/c3ccccc3)n2)c1`: the TGI in assay [1], in assay [2], in [3], in [4], in assay [5] and in assay [6] was greater than 10 µM each time. Moreover, the TGI in assay [7], in [8] and in [9] was greater than 10 µM throughout.

Take `CCOC(=O)CCC(NC(=O)c1ccc(NCc2ccc3nc(-c4ccccc4)c(Cl)nc3c2)cc1)C(=O)OCC` (stereo unspecified): the TGI in assay [10] was 41.7 µM; in assay [11], 81.2 µM; in assay [1], greater than 100 µM; in [2], greater than 100 µM; in assay [12], 23.7 µM; in assay [4], 65.8 µM. In addition, the TGI in assay [13], in assay [5], in [7], in assay [8] and in assay [9] was greater than 100 µM throughout.

For `Cc1ccc(NC(=O)C(=O)C2C(=O)NC(=O)NC2=O)cc1C`, the TGI in [10], in [11], in [1], in [2], in assay [12] and in assay [4] was greater than 100 µM each time. For the same compound, the TGI in assay [13], in [5], in assay [7], in assay [8] and in assay [9] was greater than 100 µM each time.

As to `N/C(=N\S(=O)(=O)c1ccc(-c2ncccc2C(F)(F)F)s1)Nc1ccc(Cl)cc1`, the TGI in assay [10] was greater than 100 µM; in assay [11], greater than 100 µM; in assay [1], 25.8 µM; in assay [2], 25.9 µM; in [12], greater than 100 µM; in [4], 38.4 µM. Further, the TGI in assay [13] stood at 33.7 µM; in assay [5], 32.2 µM; in assay [7] it was 29.8 µM; in assay [8] it was 19 µM; in [9], 39.3 µM.

With `c1ccc2c(c1)OCCOCCOc1ccccc1OCCO2`, the TGI is greater than 100 µM in [10]; 70.2 µM in [11]; greater than 100 µM in [1]; greater than 100 µM in [2]; greater than 100 µM in assay [12]; greater than 100 µM in assay [4]. The TGI in [13], in assay [5], in [7], in assay [8] and in [9] was greater than 100 µM throughout.

For the compound `CC(=O)OCCOCNC(=S)N/N=C/c1ccc([N+](=O)[O-])s1`, the TGI was 4.61 µM in [10]; greater than 100 µM in assay [11]; greater than 100 µM in assay [1]; greater than 100 µM in [2]; 81.7 µM in [12]; greater than 100 µM in assay [4]. Moreover, the TGI in [13], in assay [5], in [7], in assay [8] and in assay [9] was greater than 100 µM in each case.

With `COCCn1cnc2c(Cl)nc(Nc3ccccc3)nc21`, the TGI was greater than 100 µM in assay [10]; greater than 100 µM in assay [11]; greater than 100 µM in assay [1]; greater than 100 µM in assay [2]; 40.7 µM in [3]; greater than 100 µM in assay [12]. Besides, the TGI in assay [13] is greater than 100 µM; in assay [5], 69.1 µM; in [7] it was 33.2 µM; in assay [8], 51.9 µM; in assay [9], greater than 100 µM.

For `O=c1cc(NNc2cccc(Cl)c2)[nH]c(=O)[nH]1`, the TGI in assay [10] is greater than 100 µM; in assay [11] it was 56.1 µM; in [1], greater than 100 µM; in assay [2], greater than 100 µM; in [12], greater than 100 µM; in [4] it was greater than 100 µM. In addition, the TGI in assay [13] was greater than 100 µM; in assay [5], 31.4 µM; in [6], greater than 100 µM; in [7], 29.6 µM; in assay [9], greater than 100 µM.

On to `CCOC(=O)C(Cc1ccc(O)cc1)Nc1nc(=O)c2c(=O)oc(Cl)cc2o1` (stereo unspecified), for which the TGI in assay [10] is 37.9 µM; in assay [11] it was 8.59 µM; in [1], 21.9 µM; in assay [2] it was greater than 57.2 µM; in [3], 20.4 µM; in assay [12] it was greater than 49 µM. The TGI in [4] worked out at 23.8 µM; in assay [13], 27.7 µM; in [5] it was 37.3 µM; in assay [7], 27.9 µM; in assay [8], 25.5 µM; in assay [9], 13.2 µM.

For the compound `COc1ccc(/C=N/N=C(\N)NO)c(OC)c1C`, the TGI is 30.7 µM in [10]; greater than 100 µM in assay [11]; greater than 100 µM in assay [1]; greater than 100 µM in assay [2]; 31.7 µM in assay [4]; greater than 100 µM in assay [13]. For the same compound, the TGI in [5] is greater than 100 µM; in assay [7], greater than 100 µM; in assay [8] it was 41.9 µM; in [9], greater than 100 µM.

With `CC1(C)OP(=O)(O)C=C1Sc1ccc([N+](=O)[O-])cc1[N+](=O)[O-]`, the TGI in assay [10], in [1], in assay [2], in [3], in [12] and in assay [13] was greater than 100 µM throughout. Besides, the TGI in assay [5], in [6], in assay [7], in assay [8] and in [9] was greater than 100 µM in each case.

Consider `O=C1OCC2OC(=O)c3cc(O)c(O)c(O)c3-c3c(O)c(O)c(O)c4c3C(=O)OC(C2OC(=O)c2cc(O)c(O)c(O)c2-c2c1cc(O)c(O)c2O)C1OC(=O)C2C4=C(O)C(=O)C23Oc2cc(O)c4c(c2[C@H]13)O[C@H](c1ccc(O)c(O)c1)[C@@H](O)C4` (stereo partly specified), for which the TGI in assay [10] is 54.9 µM; in assay [11], 64.4 µM; in [1] it was 42.7 µM; in [2] it was greater than 100 µM; in [3], 45 µM; in assay [12], 33.8 µM. The TGI in [4] was greater than 100 µM; in assay [13] it was greater than 100 µM; in assay [5], 44.7 µM; in [7] it was 38.3 µM; in assay [8], 42.7 µM; in assay [9], 42.7 µM.
